# Legend:
# [1] = system: P. aeruginosa in Raw 264.7 macrophage; assay: Antibacterial activity for intracellular infection; format: cell-based; details: Raw 264.7 infected with P. aeruginosa, pH 7.4 and 6.0, 1 day
# Procedure: (§1) Antibacterial activity for intracellular infection. The antibacterial activity for intracellular infection was tested following the previous report. Briefly, macrophage Raw 264.7 cells were seeded in 96-well plate at a density of 1×10^4 cell/swell overnight and infected with MRSA or P. aeruginosa at a ratio of 10-20 bacteria per macrophage in FBS free RPMI 1640 medium. After 3 h incubation, the cells were washed and cultured in 1640 medium containing 10% FBS and 50 μg/mL gentamycin for one day to prevent the growth of extracellular bacteria. Then the macrophages were treated with free streptomycin or PDC for another day and lysed with Milli-Q water supplemented with 0.1% Triton-X. The cell lysates were serially diluted and the CFU in each well was determined by plating on MHB agar plates.
# [2] = system: MRSA in Raw 264.7 macrophage; assay: Antibacterial activity for intracellular infection; format: cell-based; details: Raw 264.7 infected with S. aureus, pH 7.4 and 6.0, 1 day
# Procedure: as §1
# E. coli ATCC 25922 [3] = assay: Evaluation of antibiotic resistance development (serial passaging); format: cell-based; details: sub-lethal dose (0.5 MIC)
# Procedure: Evaluation of antibiotic resistance development. E. coli ATCC 25922 was employed to study the drug resistance development under sublethal dose treatments of free streptomycin, cationic polymer or the PDC. During a serial of passages, the MIC of each treatment was measured by the broth microdilution method as described above, and the bacteria were exposed to ½MIC at that particular passage. MIC for each passage was recorded and normalized to that of the first passage to determine the drug resistance enhancement.
# [4] = system: broad spectrum of microbes; assay: MIC, broth microdilution, across the strains tested; format: cell-based; details: E. coli, MRSA, P. aeruginosa (FIGS. 3G-I)
# Procedure: (§2) Bacterial strains. S. aureus Newman was kindly provided by Prof Douglas Weibel; E. coli ATCC25922, S. aureus ATCC 33591 and P. aeruginosa ATCC 27853 were kindly donated by Prof. David Andes. E. coli DH5a was purchased from Thermo Fisher. The bacteria above were grown in Mueller Hinton Broth (MHB) media (Criterion, Santa Maria, Calif., USA). M. smegmatis mc^2155 strain was kindly donated by Prof. Adel M. Talaat, and was grown in Middlebrook 7H9 broth (HiMedia, West Chester, Pa., USA).
# Minimal inhibitory concentration (MIC) measurements. The MIC of the different treatments on various bacteria strains was determined using the broth microdilution method. Briefly, 100 μL of the respective broth media containing serial twofold dilutions of each compound was placed into a 96-well tissue culture plate. Each bacterial strain was taken from an exponentially growing culture and diluted to 5×10^6 CFU/mL. 10 μL of such microbial suspension was inoculated in each well of the plate, resulting in a final bacteria concentration of approximately 5×10^5 CFU/mL. The bacteria were cultured at 37° C. for 24 h and their growth were observed by reading the optical density (OD) at 600 nm. The MIC was determined as the treatment concentration at which no microbial growth was observed. […]
# [5] = Streptomycin release kinetics (dialysis, HPLC); format: physicochemical
# Procedure: Streptomycin release kinetics. […] The bags were put into the PBS buffers with the corresponding pH, and incubated in a 37° C. shaker. At different time intervals, 100 μL sample outside the dialysis bag was collected for HPLC analysis.
# [6] = system: E. coli, MRSA and P. aeruginosa; assay: Scanning electron microscopy (SEM) observation; format: cell-based; details: pH 6.0, 3 h
# Procedure: Scanning electron microscopy (SEM) observation. Bacteria suspensions were prepared as above and treated with PDC at different pH for 3 h, washed with saline and fixed with 2.5% glutaraldehyde at 4° C. overnight. The samples were washed with Milli-Q water and dehydrated with a series of graded ethanol solutions (50%, 75%, 90%, 100%, each for 5 min). After drying for 1 day, the samples were coated with platinum and observed by SEM (Zeiss/LEO 1530).
# E. coli ATCC 25922 [7] = assay: Mouse thigh infection model; format: in vivo, ICR mice; details: single i.v. injection 1 h after infection, equivalent of 5 mg streptomycin/kg, thighs at 24 h
# Procedure: Mouse thigh infection model. ICR mice (female, 22-24 g, Charles River) were intramuscularly inoculated with E. coli ATCC 25922 (2×10^8 CFU/mL in saline, 0.05 mL bacteria suspension per thigh) on their both thighs and randomly divided into 4 groups (n=3). The mice were treated with PBS, free streptomycin (5 mg/kg), […] through i.v. injection 1 h after the infection. 24 h after the inoculation, animals were euthanized by CO2 asphyxiation and thigh muscles were collected and homogenized in 5 mL cold PBS with glass homogenizer. The homogenates in the amount of 0.1 mL were used for serial tenfold dilutions and spread onto nutrient agar plate for CFU determination.
# E. coli ATCC 25922 [8] = assay: Live/Dead bacterial staining assay (AO/EB); format: cell-based; details: 0.5 h and 3 h
# Procedure: Live/Dead bacterial staining assay. Exponentially growing bacteria (E. coli ATCC 25922) were collected by centrifugation at 8000 rpm for 5 min, washed with saline and diluted to OD 600 value of 0.5. The bacterial suspensions were incubated with different treatments at 37° C. for 0.5 h and 3 h, and then washed with saline and stained by acridine orange (10 μg/mL) and ethidium bromide (EB, […]) solution for 15 min. Afterward, the bacteria were collected via centrifugation, washed with saline for 2 times, resuspended in 70% glycerol and spread on glass slides. The live/dead bacteria were observed by a confocal laser scanning microscope (CLSM).
# S. aureus (Newman) = assay: MIC, broth microdilution; format: cell-based
# Procedure: as §2
# (§3) Minimal inhibitory concentration (MIC) measurements. The MIC of the different treatments on various bacteria strains was determined using the broth microdilution method. Briefly, 100 μL of the respective broth media containing serial twofold dilutions of each compound was placed into a 96-well tissue culture plate. Each bacterial strain was taken from an exponentially growing culture and diluted to 5×10^6 CFU/mL. 10 μL of such microbial suspension was inoculated in each well of the plate, resulting in a final bacteria concentration of approximately 5×10^5 CFU/mL. The bacteria were cultured at 37° C. for 24 h and their growth were observed by reading the optical density (OD) at 600 nm. The MIC was determined as the treatment concentration at which no microbial growth was observed. Broth containing microbial cells alone was used as a positive control and broth without bacteria inoculation was used as a negative control. Each test was carried out in 3 replicates.
# E. coli (DH5 alpha) = assay: MIC, broth microdilution; format: cell-based
# Procedure: as §2, §3
# E. coli (ATCC 25922) = assay: MIC, broth microdilution; format: cell-based
# Procedure: as §2, §3
# [9] = system: P. aeruginosa (ATCC 27853); assay: MIC, broth microdilution; format: cell-based
# Procedure: as §2, §3
# [10] = system: S. aureus (MRSA ATCC33591); assay: MIC, broth microdilution; format: cell-based
# Procedure: as §2, §3
# M. smegmatis (MC^2 155) = assay: MIC, broth microdilution; format: cell-based
# Procedure: as §2, §3
substance,measurement,setting,value
Hex-Cys-Cys-DET-strep-DMA [Neutralized PDC],"antibacterial efficacy on intracellular bacteria (CFU), in words",[1],enhanced the antibacterial efficacy
same,"antibacterial efficacy on intracellular bacteria (CFU), in words",[2],enhanced the antibacterial efficacy
same,increase in MIC after 20 passages,E. coli ATCC 25922 [3],2 fold
same,"effect of pH (6.0 vs 7.4) on MIC, in words",[4],performed significantly better at pH 6.0 than at 7.4
same,streptomycin release,"[5]; pH 6.0, within 48 h",about 70%
same,streptomycin release,"[5]; pH 7.4, at 48 h",about 20%
same,"bacterial membrane morphology (SEM), in words",[6],severe membrane disruption and deformation
same,reductions in CFU,E. coli ATCC 25922 [7],more than 4 orders
same,"bactericidal effect / EB staining, in words",E. coli ATCC 25922 [8],much delayed and pH-dependent bactericidal effect
same,MIC S. aureus (Newman),S. aureus (Newman); pH 6.0,20 µg/mL
same,MIC S. aureus (Newman),S. aureus (Newman); pH 7.4,80 µg/mL
same,MIC E. coli (DH5 alpha),E. coli (DH5 alpha); pH 6.0,20 µg/mL
same,MIC E. coli (DH5 alpha),E. coli (DH5 alpha); pH 7.4,80 µg/mL
same,MIC E. coli (ATCC 25922),E. coli (ATCC 25922); pH 6.0,20 µg/mL
same,MIC E. coli (ATCC 25922),E. coli (ATCC 25922); pH 7.4,80 µg/mL
same,MIC P. aeruginosa (ATCC 27853),[9]; pH 6.0,40 µg/mL
same,MIC P. aeruginosa (ATCC 27853),[9]; pH 7.4,160 µg/mL
same,MIC S. aureus (MRSA ATCC33591),[10]; pH 6.0,40 µg/mL
same,MIC S. aureus (MRSA ATCC33591),[10]; pH 7.4,160 µg/mL
same,MIC M. smegmatis (MC^2 155),M. smegmatis (MC^2 155); pH 6.0,2.5 µg/mL
same,MIC M. smegmatis (MC^2 155),M. smegmatis (MC^2 155); pH 7.4,20 µg/mL

# Source: patent publication US11911406B2, “PH-responsive polymer-drug conjugates for enhanced antibacterial efficacy” (priority 2020, dated 2024)
